Experimental data published in PMC6480038, “In Vitro and In Silico Acetylcholinesterase Inhibitory Activity of Thalictricavine and Canadine and Their Predicted Penetration across the Blood-Brain Barrier” (Molecules, 2019).

Experiments:
[1] = in vitro; details: pig, PAMPA, pH 7.4
[2] = biological target: T1, human recombinant acetylcholinesterase (hAChE) (Homo sapiens, UniProt P22303); test: biochemical; details: for SI (selectivity index for hAChE): ratio IC50 hBChE / IC50 hAChE; for IC50: recombinant hAChE, ATCh substrate, pH 7.4, 37 °C, mean ± SEM of three measurements
T1 construct: purchased Sigma-Aldrich (Prague, Czech Republic)
T1 sequence (P22303 32-614): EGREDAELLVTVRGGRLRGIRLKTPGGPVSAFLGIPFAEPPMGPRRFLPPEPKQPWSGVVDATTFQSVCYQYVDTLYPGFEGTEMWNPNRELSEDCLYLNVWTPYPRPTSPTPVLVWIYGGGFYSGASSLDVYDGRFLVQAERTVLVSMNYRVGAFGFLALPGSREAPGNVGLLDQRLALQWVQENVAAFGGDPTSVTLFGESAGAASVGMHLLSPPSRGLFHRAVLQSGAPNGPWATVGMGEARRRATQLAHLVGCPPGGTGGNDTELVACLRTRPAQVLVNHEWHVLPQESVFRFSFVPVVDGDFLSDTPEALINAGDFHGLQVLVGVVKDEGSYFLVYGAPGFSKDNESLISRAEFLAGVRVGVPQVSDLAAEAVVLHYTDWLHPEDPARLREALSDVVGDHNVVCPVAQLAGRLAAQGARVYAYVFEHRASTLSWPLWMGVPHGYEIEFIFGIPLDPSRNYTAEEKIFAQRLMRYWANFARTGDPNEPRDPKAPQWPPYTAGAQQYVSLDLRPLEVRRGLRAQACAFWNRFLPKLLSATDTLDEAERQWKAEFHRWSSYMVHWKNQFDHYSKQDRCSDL
Description: (§1) Human recombinant acetylcholinesterase (hAChE; EC 3.1.1.7), human plasma butyrylcholinesterase (hBChE; EC 3.1.1.8), 5,5′-dithiobis(2-nitrobenzoic acid) (Ellman’s reagent, DTNB), phosphate buffer (PB, pH 7.4), dimethyl sulfoxide (DMSO), acetylthiocholine (ATCh), and butyrylthiocholine (BTCh) were purchased from Sigma-Aldrich (Prague, Czech Republic). Polystyrene Nunc 96-well microplates with flat bottom shape (ThermoFisher Scientific, Waltham, MA, USA) were utilized for measuring purposes of cholinesterase assays and the kinetic inhibition study.
(§2) The hAChE and hBChE inhibitory activity of the tested compounds was determined using a modified Ellman’s method. All the assays were carried out in 0.1 M KH2PO4/K2HPO4 buffer, pH 7.4. Enzyme solutions were prepared at an activity of 2.0 units/mL in 2 mL aliquots. The assay medium ([…]) consisted of 40 µL of 0.1 M phosphate buffer (pH 7.4), 20 µL of 0.01 M DTNB, 10 µL of enzyme, and 20 µL of 0.01 M substrate (ATCh iodide solution). […] The reaction started by addition of 20 µL of the substrate (ATCh for hAChE, BTCh for hBChE). […] Each concentration was assayed in triplicate.

[3] = tested on: selected human carcinoma and non-carcinoma cells; details: read-out: cytotoxicity IC50; cited from earlier work
[4] = tested on: AChE (red blood cell ghosts); details: earlier screening, 25 °C, red blood cell ghosts as AChE source; cited from earlier work
[5] = biological target: T2, recombinant hAChE (Homo sapiens, UniProt P22303); test: Kinetic study of hAChE inhibition; assay type: biochemical; details: for type of inhibition: nonlinear regression with sum-of-squares F-test, p < 0.05; for Ki: nonlinear regression, ATCh 156–1250 µM
T2 construct: purchased Sigma-Aldrich (Prague, Czech Republic)
T2 sequence (P22303 32-614): as above
Description: The mode of interaction of the hAChE inhibition was elucidated for 1 and 2 using a kinetic study in order to gain information about the mode of inhibition and the binding site of the isolated alkaloids. Recombinant hAChE was used in this kinetic analysis of 1 and 2. […] The type of the inhibition mechanism was clarified by a nonlinear regression analysis. The results computed for each model type of inhibition (competitive, non-competitive, uncompetitive and mixed) were compared with the sum-of-squares F-test.
The kinetic study of hAChE inhibition was performed by using Ellman’s method (described above). […] Reactions were performed in triplicate. Vmax and Km values, respectively, of the Michaelis-Menten kinetics and Ki were calculated by non-linear regression from the substrate velocity curves. Linear regression was used for calculation of Lineweaver-Burk plots. All calculations were performed using the GraphPad Prism software.

[6] = Table S1, predictive penetration into the CNS
[7] = biological target: T3, human plasma butyrylcholinesterase (hBChE) (Homo sapiens, UniProt P06276); test: hBChE inhibition, modified Ellman's method; assay type: biochemical; details: BTCh substrate, pH 7.4, 37 °C, mean ± SEM of three measurements
T3 construct: Recombinant hAChE and plasma hBChE were used as sources of cholinesterases; purchased Sigma-Aldrich (Prague, Czech Republic); host or cells: human plasma
T3 sequence (P06276 29-602): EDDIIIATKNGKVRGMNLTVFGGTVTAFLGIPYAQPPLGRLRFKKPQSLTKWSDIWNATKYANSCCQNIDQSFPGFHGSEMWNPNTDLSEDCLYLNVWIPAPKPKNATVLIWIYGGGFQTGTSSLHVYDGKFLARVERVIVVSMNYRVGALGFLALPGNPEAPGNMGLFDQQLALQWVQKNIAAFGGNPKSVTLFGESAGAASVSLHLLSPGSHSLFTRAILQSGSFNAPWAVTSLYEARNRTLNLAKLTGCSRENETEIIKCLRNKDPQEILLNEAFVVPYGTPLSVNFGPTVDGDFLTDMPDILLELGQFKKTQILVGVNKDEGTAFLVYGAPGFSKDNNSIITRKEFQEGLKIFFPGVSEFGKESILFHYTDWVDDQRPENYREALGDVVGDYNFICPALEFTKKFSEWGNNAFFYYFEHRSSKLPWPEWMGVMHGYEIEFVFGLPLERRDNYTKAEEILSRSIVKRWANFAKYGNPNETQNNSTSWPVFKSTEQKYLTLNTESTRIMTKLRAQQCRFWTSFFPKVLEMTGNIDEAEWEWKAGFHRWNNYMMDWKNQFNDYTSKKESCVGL
Description: as §1, §2

Row | Compound | Papp [1] | SI (selectivity index for hAChE) [2] | IC50 [2] | IC50 [3] | IC50 value for AChE [4] | type of inhibition [5] | Ki [5] | PAMPA-BBB prediction [6] | IC50 [7]
1 | Cn1c(=O)c2c(ncn2C)n(C)c1=O [caffeine, reference compound] | 0.3 ×10⁻⁶ cm/s |  |  |  |  |  |  |  | 
2 | COc1ccc2c(c1OC)CN1CCc3cc4c(cc3[C@H]1C2)OCO4 [Compound 2, (+)-canadine] | 5 ± 0.3 ×10⁻⁶ cm/s | >143 | 700 ± 70 nM | > 10000 nM | low micromolar range | competitive | 129 ± 44 nM | CNS + | > 100000 nM
3 | COc1ccc2c(c1OC)CN1CCc3cc4c(cc3[C@H]1[C@H]2C)OCO4 [Compound 1, (+)-thalictricavine] | 2.5 ± 0.1 ×10⁻⁶ cm/s | >263 | 380 ± 50 nM | > 10000 nM |  | competitive | 174 ± 56.9 nM |  | > 100000 nM
